Earlier results as cited in patent US11346820B2, “HPLC-PDA method and uses thereof in phytoestrogen measurement” (The Board Of Regents, The University of Texas System, priority 2019, dated 2022).
Read-outs that look alike come from different tables or passages of the source.

Conditions: nonrepresentative subset of adults, N=199, Valentin-Blasini, et al.

Row | means recovered [ng/mL] | means recovered (units converted) [µmol/L] | SMILES
1 | 36 | 0.148 | Oc1ccc([C@H]2COc3cc(O)ccc3C2)cc1 (racemic) [Equol]
2 | 129 | 0.477 | O=c1c(-c2ccc(O)cc2)coc2cc(O)cc(O)c12 [Genistein]
